PubChem BioAssay AID1996
≈ marks a conversion by molar mass, not a printed value.

Settings: buffer; pH 7.4; 200.0 µM

Row | solubility kinetic [µg/mL] | SMILES
1 | 11.9 (≈ 38.3 µM) | COc1cccc(C(=O)Nc2ccccc2C(=O)NC2CC2)c1
2 | 13.7 (≈ 46.4 µM) | Cc1cnc(C(=O)OCC(=O)c2c[nH]c3ccccc23)cn1
3 | 13.4 (≈ 38 µM) | CCOc1ccccc1NC(=O)c1cccc(NC(=O)C2CCCC2)c1
4 | 41.9 (≈ 136 µM) | COC(=O)c1cc(C(=O)c2cc(Cl)ccc2O)coc1=N
5 | 3.8 (≈ 13.2 µM) | COc1ccc2c(c1OC)C(=O)N(c1ccc(F)cc1)C2
6 | 1.3 (≈ 4.97 µM) | O=C1CSC(=S)N1c1ccc(F)c(Cl)c1
7 | > 38 | Oc1ccc2ccccc2c1C=NC1CCCCC1
8 | 1.9 (≈ 5.81 µM) | C/C(=N/OC(=O)c1ccc(Cl)cc1Cl)c1oc(C)nc1C
9 | 19 (≈ 120 µM) | Cc1ccc2cccc(N)c2n1
10 | 14.5 (≈ 50.1 µM) | CCc1ccc(C(=O)OCC(=O)N2CCCCCC2)cc1
11 | 23.8 (≈ 62.7 µM) | O=C(NCCN1CCOCC1)c1cc(-c2ccc(F)cc2)nc2ccccc12
12 | > 50 | CN(CCc1ccccn1)C(=O)c1cccnc1Oc1ccccc1
13 | > 55.8 | Cc1onc(-c2c(Cl)cccc2Cl)c1NC(=O)N1CCSCC1
14 | > 43.1 | COc1cc2c(cc1OC)CN(C(=O)c1ccco1)CC2
15 | 2.7 (≈ 5.94 µM) | O=C(COC(=O)/C=C/c1ccco1)Nc1cc(S(=O)(=O)N2CCOCC2)ccc1Cl

The remaining lines, values behind:

Row | SMILES | solubility kinetic [µg/mL]
16 | CN(c1ccc(OCC(=O)OCC(=O)Nc2ccc(OC(F)F)cc2)cc1)S(=O)(=O)c1cccs1 | 19.1 (≈ 36.3 µM)
17 | Cc1ccc(-c2nc(C(Cl)Cl)c3ccccc3n2)cc1 | < 0.3
18 | CSc1nsc(NC(=O)Nc2ccccc2)n1 | 21.2 (≈ 79.6 µM)
19 | NC(=O)COC(=O)c1cc(=O)[nH]c2ccccc12 | > 36.9
20 | Br.Fc1ccc(-c2csc(NC3=NCCC3)n2)cc1 | 43
21 | COc1cccc(-c2cc(-c3cccnc3)c(C#N)c(N)n2)c1 | 0.7 (≈ 2.32 µM)
22 | COc1ccnc2c1c(=O)n(Cc1cccc(F)c1)c(=O)n2C | 37.9 (≈ 120 µM)
23 | Cc1cc(C(=O)N2CCN(c3ccc([N+](=O)[O-])cc3)CC2)n[nH]1 | > 47.3
24 | O=C(NCc1ccc(F)cc1)C1CC(=O)N(C2CCCC2)C1 (configuration not stated) | > 45.7
25 | O=C(COC(=O)CNC(=O)c1ccccc1F)NCC(F)(F)F | > 50.4
26 | Cc1cccc(Oc2c([N+](=O)[O-])c(=O)n(C)c3ccccc23)c1 | 6.6 (≈ 21.3 µM)
27 | COc1ccc(CN(C)C(=O)CNC(=O)c2ccc(C)cc2)cc1 | > 49
28 | COc1ccc(OC)c(Nc2cc(C)c3ccccc3n2)c1 | 1.4 (≈ 4.76 µM)
29 | CCOC(=O)Cc1cc(=O)[nH]c(/N=C(\N)Nc2ccc(OC)cc2)n1 | 6.2 (≈ 18 µM)
30 | COc1cccc(C(=O)c2c[nH]c(C(=O)NCCCN(C)C)c2)c1 | > 49.4
31 | CCOC(=O)c1cc(NC(=O)/C=C\C(=O)O)ccc1Cl | > 44.7

Row | SMILES | solubility kinetic [µg/mL]
32 | Cc1ccc(CNC(=O)C2CCC(=O)N2C(C)C)cc1 (configuration not stated) | > 41.2
33 | Cc1ccc(NC(=O)CN2CCOCC2)cc1 | > 35.1
34 | CN(Cc1ccccc1)C(=O)c1ccc(S(=O)(=O)N(C)c2ccccc2)cc1 | 26.1 (≈ 66.2 µM)
35 | Cc1cc(C)c(C#N)c(SCC(=O)Nc2cc(C)on2)n1 | 2.1 (≈ 6.95 µM)
36 | CC(=O)N1CCN(C(=S)Nc2ccc(SC(F)F)cc2)CC1 | > 51.8
37 | COC(=O)c1cc(NC(=O)CN(C)C2CCS(=O)(=O)C2)cc(C(=O)OC)c1.O=C(O)C(=O)O (configuration not stated) | > 73.3
38 | CC(C)CN1CCCC(N2CCN(c3cccc(Cl)c3)CC2)C1 (configuration not stated) | 39.8 (≈ 118 µM)
39 | Cc1nnc(NC(=O)C2CC(=O)N(Cc3ccccc3)C2)s1 (configuration not stated) | > 47.5
40 | CCOC(=O)C1CN(S(=O)(=O)c2cc(OC)ccc2OC)C1 | 48.8 (≈ 148 µM)
41 | COC(=O)c1onc(-c2c(Cl)cccc2Cl)c1C(=O)OC | 41.2 (≈ 125 µM)
42 | Cc1cc(Cl)nc(-c2ccccc2)n1 | 0.3 (≈ 1.47 µM)
43 | COCc1nnc(NC(=O)CCS(=O)(=O)c2ccccc2)s1 | > 51.2
44 | Nc1nnc(SCc2c(F)cccc2Cl)s1 | > 41.4
45 | Cc1ccc(CN2C(=O)C3CCCN3c3ncccc32)cc1 (configuration not stated) | 33.3 (≈ 114 µM)
46 | CCOc1cccc(C(=O)N2CCCN(C)CC2)c1 | 35.6 (≈ 136 µM)
47 | Cc1cccc(Nc2c([N+](=O)[O-])ccc3nonc23)c1C | < 0.1
